Broadly, the GI50 is the concentration at which growth is held to half of that of the control.

This is an account of results in ChEMBL document CHEMBL1201862, “PubChem BioAssay data set” (2004).

Test systems include EKVX; HCT-116; HL-60; HOP-62; HOP-92; IGROV-1; KM-20L2; KM12; LOX IMVI; MCF7; OVCAR-3; OVCAR-5; RXF 393; SK-MEL-5; SN12C; UACC-62; UO-31; XF498.
What all share (test): DTP human tumour cell line panel, 48 h

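All cell lines were grown in 96-well plates and treated with compound for 48 hours. GI50 = concentration required for 50% inhibition of growth.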 Activity calls are given as the source filed them. Rule as the data show it: active = GI50 up to about 1.1 µM and inactive = higher. Some results are limits rather than exact numbers.

In the case of `COc1ccc2cc1Oc1ccc(cc1)C[C@H]1c3cc(c(OC)cc3CCN1C)Oc1c(O)c(OC)cc3c1[C@H](C2)N(C)CC3` [FANGCHINOLINE], the GI50 was 4.45 µM (inactive) in the experiment with EKVX; 13.3 µM (inactive) with HCT-116; 14 µM (inactive) with HL-60; 37.6 µM (inactive) in the experiment with HOP-62; 7.64 µM (inactive) in the experiment on HOP-92; 27.1 µM (inactive) in the experiment with IGROV-1. The GI50 in the experiment with KM-20L2 was 1.7 µM (inactive); in the experiment on KM12, 16.8 µM (inactive); in the experiment with LOX IMVI it was 5.3 µM (inactive); in the experiment with MCF7 it was 26.6 µM (inactive); with OVCAR-3, 21.6 µM (inactive); with OVCAR-5, 46.3 µM (inactive). Moreover, the GI50 in the experiment on RXF 393 was 16.5 µM (inactive); in the experiment with SK-MEL-5, 13.6 µM (inactive); in the experiment on SN12C, 38.8 µM (inactive); with UACC-62 it was 20.7 µM (inactive); in the experiment with UO-31, 25.5 µM (inactive); in the experiment with XF498, 27.4 µM (inactive).
Consider `Nc1nnc(N)n1NC(=O)C(=O)Nc1ccc([N+](=O)[O-])cc1`, for which the GI50 with EKVX, with HCT-116, with HL-60, in the experiment on HOP-62, in the experiment on HOP-92 and in the experiment with IGROV-1 was > 100 µM (inactive) in each case. Further, the GI50 with KM-20L2, with KM12, in the experiment on LOX IMVI, with OVCAR-5, in the experiment with RXF 393 and in the experiment on SK-MEL-5 was > 100 µM (inactive) each time. Also, the GI50 in the experiment with SN12C is > 100 µM (inactive); in the experiment with UACC-62 it was 49.1 µM (inactive); in the experiment with UO-31, > 100 µM (inactive); in the experiment with XF498 it was > 100 µM (inactive).
As to `N/C(=N\O)N/N=C\c1cc([N+](=O)[O-])cc([N+](=O)[O-])c1O`, the GI50 with EKVX was > 100 µM (inactive); in the experiment with HCT-116 it was 4.92 µM (inactive); in the experiment with HL-60 it was 3.36 µM (inactive); with HOP-62 it was 4.22 µM (inactive); in the experiment with HOP-92, > 100 µM (inactive); with KM-20L2 it was 24.9 µM (inactive). Moreover, the GI50 was 2.94 µM (inactive) in the experiment on KM12; 2.99 µM (inactive) in the experiment on LOX IMVI; 19.1 µM (inactive) in the experiment on MCF7; 59.3 µM (inactive) in the experiment with OVCAR-3; > 30.5 µM (inactive) with OVCAR-5; > 100 µM (inactive) in the experiment with RXF 393. Besides, the GI50 is 9.42 µM (inactive) in the experiment on SK-MEL-5; 24.2 µM (inactive) with SN12C; 1.58 µM (inactive) in the experiment on UACC-62; 4.67 µM (inactive) in the experiment on UO-31; 40.8 µM (inactive) in the experiment with XF498.
For `CSc1nc2c(ncn2C2OCC(O)C(O)C2O)c(=O)n1C` (stereo unspecified), the GI50 in the experiment on EKVX, in the experiment on HCT-116, in the experiment with HL-60, with HOP-62, in the experiment with HOP-92 and in the experiment with IGROV-1 was > 100 µM (inactive) each time. Also, the GI50 in the experiment on KM-20L2, in the experiment on KM12, in the experiment on LOX IMVI, in the experiment with MCF7, in the experiment with OVCAR-3 and in the experiment on OVCAR-5 was > 100 µM (inactive) in each case. In addition, the GI50 with RXF 393, with SK-MEL-5, in the experiment with SN12C, in the experiment on UACC-62, in the experiment on UO-31 and with XF498 was > 100 µM (inactive) throughout.
In the case of `COc1cc(C2c3cc4c(cc3[C@@H](Nc3ccc(N5CCOCC5)cc3)C3COC(=O)[C@H]23)OCO4)cc(OC)c1O` (stereo partly specified), the GI50 was 1.97 µM (inactive) in the experiment on EKVX; 1.25 µM (inactive) with HCT-116; 0.0319 µM (active) in the experiment with HL-60; 0.274 µM (active) in the experiment with HOP-62; 0.773 µM (active) in the experiment with HOP-92; 4.01 µM (inactive) in the experiment with IGROV-1. Moreover, the GI50 in the experiment with KM-20L2 is 1.57 µM (inactive); in the experiment with LOX IMVI, 1.01 µM (active); with MCF7, 0.177 µM (active); in the experiment on OVCAR-3, 2.86 µM (inactive); with OVCAR-5, 1.82 µM (inactive); in the experiment on RXF 393, 2.3 µM (inactive). Moreover, the GI50 with SK-MEL-5 is 1.04 µM (active); in the experiment with SN12C, 0.388 µM (active); in the experiment with UACC-62 it was 0.525 µM (active); with UO-31 it was 1.85 µM (inactive); with XF498, 0.392 µM (active).
For the compound `ClCc1nnc2n1-c1ccc(Cl)cc1SC2`, the GI50 in the experiment with EKVX was 13.3 µM (inactive); with HCT-116, 3.1 µM (inactive); in the experiment on HL-60, 1.56 µM (inactive); in the experiment with HOP-62, 6.25 µM (inactive); with HOP-92, 2.55 µM (inactive); in the experiment with IGROV-1, 2.94 µM (inactive). In addition, the GI50 was 4.67 µM (inactive) in the experiment with KM-20L2; 4.35 µM (inactive) in the experiment on KM12; 1.49 µM (inactive) with LOX IMVI; 4.2 µM (inactive) with MCF7; 2.17 µM (inactive) in the experiment on OVCAR-3; 12.2 µM (inactive) with OVCAR-5. Further, the GI50 is 2.23 µM (inactive) in the experiment on RXF 393; 2.62 µM (inactive) with SK-MEL-5; 7.26 µM (inactive) in the experiment with SN12C; 2.69 µM (inactive) in the experiment on UACC-62; 15.1 µM (inactive) in the experiment with UO-31; 5.57 µM (inactive) in the experiment with XF498.
On to `C=C/C(C)=C/[C@H](C)C(=O)C[C@H](O)CC1CC(=O)NC(=O)C1`, for which the GI50 with EKVX was 24.1 µM (inactive); in the experiment with HCT-116, 40.3 µM (inactive); with HL-60 it was 20.3 µM (inactive); in the experiment with HOP-62, 19.2 µM (inactive); in the experiment with HOP-92, 21.7 µM (inactive); in the experiment with IGROV-1, 19.9 µM (inactive). Besides, the GI50 with KM-20L2 is 19.2 µM (inactive); with KM12 it was 32.7 µM (inactive); in the experiment with LOX IMVI, 43.1 µM (inactive); with MCF7, 27.5 µM (inactive); in the experiment with OVCAR-3, 49.2 µM (inactive); in the experiment with OVCAR-5, 58.9 µM (inactive). Further, the GI50 with RXF 393 was 38.5 µM (inactive); with SK-MEL-5, 34.5 µM (inactive); in the experiment with SN12C it was 25.5 µM (inactive); in the experiment on UACC-62, 37.2 µM (inactive); with UO-31, 48.9 µM (inactive); in the experiment on XF498, 2.86 µM (inactive).
As for `CCCNC(/C=C/[Si](C)(C)C)CO.CCCNCC(O)/C=C/[Si](C)(C)C` (stereo unspecified), the GI50 with EKVX was > 100 µM (inactive); in the experiment with HCT-116, > 100 µM (inactive); in the experiment with HL-60, > 100 µM (inactive); in the experiment with HOP-92, 36.9 µM (inactive); with IGROV-1, > 100 µM (inactive); with KM-20L2 it was > 100 µM (inactive). Further, the GI50 was > 100 µM (inactive) in the experiment with KM12; > 100 µM (inactive) in the experiment on LOX IMVI; > 100 µM (inactive) in the experiment with OVCAR-3; > 100 µM (inactive) with OVCAR-5; 95.7 µM (inactive) in the experiment on RXF 393; > 100 µM (inactive) in the experiment with SK-MEL-5. Further, the GI50 in the experiment on SN12C is > 100 µM (inactive); with UACC-62 it was > 100 µM (inactive); with UO-31 it was > 100 µM (inactive); with XF498, 22 µM (inactive).
On to `COc1ccc(Sc2ccccc2N)cc1`, for which the GI50 with EKVX was 53.7 µM (inactive); with HCT-116, 49 µM (inactive); in the experiment with HL-60, 18.8 µM (inactive); in the experiment on HOP-62, 65.9 µM (inactive); in the experiment with HOP-92, 21.1 µM (inactive); in the experiment on IGROV-1, 65.2 µM (inactive). Further, the GI50 in the experiment with KM-20L2 is 52.6 µM (inactive); in the experiment with KM12, 41.3 µM (inactive); in the experiment with LOX IMVI, 64 µM (inactive); with OVCAR-3 it was 29.1 µM (inactive); in the experiment with OVCAR-5 it was 46.5 µM (inactive); with RXF 393 it was 25.5 µM (inactive). In addition, the GI50 in the experiment on SK-MEL-5 is 22.3 µM (inactive); in the experiment on SN12C, 33.1 µM (inactive); in the experiment with UACC-62, 71.4 µM (inactive); in the experiment on UO-31, 21.8 µM (inactive); with XF498, 0.162 µM (active).
Turning to `COc1ccc(C2C(C(=O)O)=C(COC(C)=O)Oc3cc4c(cc32)OCO4)cc1` (stereo unspecified), the GI50 in the experiment with EKVX, with HCT-116, in the experiment on HL-60, with HOP-62, with HOP-92 and in the experiment on IGROV-1 was > 100 µM (inactive) in each case. Moreover, the GI50 with KM-20L2, with LOX IMVI, with OVCAR-3, in the experiment with RXF 393, in the experiment with SK-MEL-5 and in the experiment with SN12C was > 100 µM (inactive) throughout. In addition, the values for the GI50 in the experiment on UACC-62, in the experiment on UO-31 and in the experiment with XF498 were > 100 µM (inactive), > 100 µM (inactive) and 40.7 µM (inactive), respectively.
Turning to `C/C([O-])=C(/c1nc(-c2ccc([N+](=O)[O-])o2)no1)[n+]1cc(C)ccc1C`, the GI50 was 58.6 µM (inactive) with EKVX; 6.25 µM (inactive) with HCT-116; 22.7 µM (inactive) with HOP-62; > 100 µM (inactive) in the experiment on HOP-92; 29 µM (inactive) with IGROV-1; 12.6 µM (inactive) with KM-20L2. Also, the GI50 with KM12 is 5.82 µM (inactive); in the experiment on LOX IMVI it was 5.94 µM (inactive); in the experiment with MCF7 it was 4.02 µM (inactive); in the experiment with OVCAR-3, 19.6 µM (inactive); in the experiment with OVCAR-5 it was 21.8 µM (inactive); with RXF 393, 18.7 µM (inactive). For the same compound, the GI50 in the experiment on SK-MEL-5 is 10.6 µM (inactive); in the experiment on SN12C it was 13.6 µM (inactive); in the experiment with UACC-62, 7.21 µM (inactive); with UO-31 it was 21.7 µM (inactive); in the experiment with XF498, 7.48 µM (inactive).
Turning to `COC(=O)C1=COC2OC3/C(=C\c4ccc(O)c(OC)c4)C(=O)OC34C=CC1C24` (stereo unspecified), the GI50 was 19 µM (inactive) with HCT-116; 9.18 µM (inactive) in the experiment with HL-60; 24.5 µM (inactive) in the experiment on HOP-62; 22.5 µM (inactive) with HOP-92; 24.4 µM (inactive) with IGROV-1; 17.8 µM (inactive) in the experiment on KM-20L2. In addition, the GI50 in the experiment on KM12 is 13.8 µM (inactive); in the experiment with OVCAR-3, 14.9 µM (inactive); in the experiment with OVCAR-5, 18.3 µM (inactive); with SK-MEL-5, 35.2 µM (inactive); with SN12C it was 17.8 µM (inactive); in the experiment on UACC-62 it was 19.6 µM (inactive). Besides, the GI50 with UO-31 was 14.4 µM (inactive); with XF498 it was 3.46 µM (inactive).
